This is an account of results in patent US5608095A, “Alkyl-4-silyl-phenols and esters thereof as antiatherosclerotic agents” (Hoechst Marion Roussel, Inc., priority 1996, dated 1997).

The nature of series [1]: HPLC quantitation of compound and metabolite concentration in rat serum and liver. The series is classed as in vivo, male Sprague-Dawley rats. The note with it: 4 days; for concentration at 96 h: po. Summed up:
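Male Sprague-Dawley rats (50–100 g, n=5) fed compound as 0.3% or 0.1% dietary admixture for 4 days; serum and liver taken day 5. Ether:ethanol extracts analysed by reverse-phase C18 HPLC at 240, 254, 420 nm for parent, bisphenol and diphenoquinone; recovery-corrected, μg/mL serum, μg/g liver.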

Series [2] relates to oxidation of serum lipids. Briefly: TBARS assay, rat serum. It counts as in vivo, male Sprague-Dawley rats. To be noted: po, 96 h, read-out: TBARS, percent of control. Summed up:
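Male Sprague-Dawley rats (50–100 g) were fed compound as a 0.3% or 0.1% dietary admixture for 4 days, and serum was taken from non-fasted rats on day 5. Serum was oxidised with 5 mmol CuSO4 solution at 37 °C for 3 h, then reacted with TBA at 90 °C for 30 min. A540 was converted to nmol MDA by standard curve and compared against untreated-rat serum.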

A short description of series [3]: Animal parameters (food, body weight, liver weight, mortality) in rats. It counts as in vivo, male Sprague-Dawley rats. The note with it: 4 days; for mortality at 96 h: in vivo, po, read-out: mortality (deaths per group); for mortality at 96 h / body wt., percent of control / lw/bw (liver weight/body weight), percent of control: rat. Summed up:
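Male Sprague-Dawley rats (50–100 g, n=5/group) received compound as a 0.3% or 0.1% dietary admixture for 4 days, alongside an untreated control group. On day 5, non-fasted rats were bled and killed. Body weight, liver weight, food intake (g·day⁻¹·rat⁻¹) and mortality were recorded.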

The subject of series [4] is oxidation of serum lipids. Briefly: TBARS assay, serum of cholesterol-fed rabbits. To be noted: Oryctolagus cuniculus, po, 168 h, read-out: TBARS, percent of control. It counts as in vivo, female New Zealand White rabbits. Summed up:
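Female NZW rabbits ate 0.2% cholesterol chow with 0.4% dietary compound (some 0.26% or 0.6%) for 7 days (14 days at 0.6%); fasted serum was collected. Serum was oxidised with 5 mM CuSO4 solution, 37 °C 5 h, then reacted with thiobarbituric acid at 90 °C for 30 min. MDA nmol came from an A540 standard curve, versus untreated-rabbit serum.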

Setting [5] is: rat liver, diet 0.3%, read-out: Liver Parent = parent compound concentration.
Where [6] appears, read: rat serum, diet 0.3%, read-out: Serum Parent = parent compound concentration.
The mark [7] stands for this setting: rabbit serum, diet 0.4%, 7 days.

Read-outs that look alike come from different tables or passages of the source.

The mortality is the percentage killed. On to `CC(C)(C)c1cc(OC[Si](C)(C)c2ccccc2)c(C(C)(C)C)cc1O` [MDL 104,962, 2,5-Di-t-butyl-4-[(dimethylphenylsilyl)methyloxy]phenol], for which the concentration at 96 h in series [1] (setting [5]) came to 43500 ng/g. Moreover, the concentration at 96 h in series [1] (setting [6]) amounted to 16400 ng/mL. The response vs control in vivo at 0.3 % in series [2] (rat serum, diet 0.3%, 4 days) is 25%. Further, in series [3] (diet 0.3%), the “food (grams eaten per day per rat), percent of control” value amounted to 74%; the mortality at 96 h amounted to 0%; the “body wt., percent of control” value is 95%; the “lw/bw (liver weight/body weight), percent of control” value worked out at 103%. The response vs control in vivo at 0.4 % in series [4] (setting [7]) came out at 19%.
Consider `CC(=O)Oc1ccc(OC[Si](C)(C)c2ccccc2)cc1C(C)(C)C` [MDL 105,443, 2-t-Butyl-4-[(dimethylphenylsilyl)methyloxy]phenol acetic acid ester], for which the “Liver Parent = parent compound concentration” value in series [1] (rat liver, diet 0.1%) came to 0 µg/g. Further, the “Liver Parent = parent compound concentration” value in series [1] (rat liver, diet 0.3%) stood at 0 µg/g. Also, in series [1] (rat serum, diet 0.1%), the “Serum Parent = parent compound concentration” value came to 0 µg/mL. Further, the “Serum Parent = parent compound concentration” value in series [1] (rat serum, diet 0.3%) was 0.0 µg/mL. Further, the response vs control in vivo at 0.1 % in series [2] (rat serum, diet 0.1%, 4 days) was found to be 78%. The response vs control in vivo at 0.3 % in series [2] (rat serum, diet 0.3%, 4 days) was determined as 14%. Further, in series [3] (diet 0.1%), the “food (grams eaten per day per rat), percent of control” value worked out at 100%; the mortality at 96 h was determined as 0%; the “body wt., percent of control” value is 101%; the “lw/bw (liver weight/body weight), percent of control” value is listed as 110%. In addition, in series [3] (diet 0.3%), the “food (grams eaten per day per rat), percent of control” value stood at 84%; the mortality at 96 h stood at 0%; the “body wt., percent of control” value was found to be 95%; the “lw/bw (liver weight/body weight), percent of control” value was determined as 118%. Moreover, the response vs control in vivo at 0.4 % in series [4] (setting [7]) amounted to 42%.
Take `CC(C)(C)c1cc(OC[Si](C)(C)c2ccc(C(F)(F)F)cc2)cc(C(C)(C)C)c1O` [MDL 105,975, 2,6-Di-t-butyl-4-[(dimethyl-4-trifluoromethylphenylsilyl)methyloxy]phenol]: in series [1] (rat liver, diet 0.1%, read-out: Liver Parent = parent compound concentration), the concentration at 96 h worked out at 94500 ng/g. Moreover, the concentration at 96 h in series [1] (setting [5]) was 186000 ng/g. The concentration at 96 h in series [1] (rat serum, diet 0.1%, read-out: Serum Parent = parent compound concentration) is 23800 ng/mL. For the same compound, the concentration at 96 h in series [1] (setting [6]) turned out to be 35800 ng/mL. For the same compound, in series [2] (Rattus norvegicus), the response vs control in vivo at 0.1 % was found to be 67% and the response vs control in vivo at 0.3 % was determined as 24%. In series [3] (diet 0.1%), the “food (grams eaten per day per rat), percent of control” value is recorded as 106%; the mortality at 96 h was determined as 0%; the “body wt., percent of control” value was 98%; the “lw/bw (liver weight/body weight), percent of control” value is reported as 105%. In addition, in series [3] (diet 0.3%), the “food (grams eaten per day per rat), percent of control” value is 98%; the mortality at 96 h turned out to be 0%; the “body wt., percent of control” value was found to be 100%; the “lw/bw (liver weight/body weight), percent of control” value is 113%. The response vs control in vivo at 0.4 % in series [4] was 68%.
With `COc1ccc([Si](C)(C)COc2ccc(O)c(C(C)(C)C)c2)cc1` [MDL 106,834, 2-t-Butyl-4-[(dimethyl-p-methoxylphenylsilyl)methyloxy]phenol], the concentration at 96 h in series [1] (setting [5]) was determined as 2700 ng/g. Besides, the concentration at 96 h in series [1] (setting [6]) came out at 1800 ng/mL. For the same compound, in series [2] (rat serum, diet 0.3%, 4 days), the response vs control in vivo at 0.3 % came out at 31%. Also, in series [3] (diet 0.3%), the “food (grams eaten per day per rat), percent of control” value was 91%; the mortality at 96 h turned out to be 0%; the “body wt., percent of control” value is 95%; the “lw/bw (liver weight/body weight), percent of control” value was 132%. Further, the response vs control in vivo at 0.4 % in series [4] (setting [7]) is 70%.
